Molecules are shown by their SMILES.

The subject of the assay is elastase-treated model mouse of COPD. The assay is described as follows: Combination effect of cilostazol/probucol for pulmonary disorder in mouse treated with human neutrophil elastase (COPD model). It counts as in vivo, C57BL/6J mouse. Particulars: free feeding from 7 days before intratracheal human neutrophil elastase 20 U/50 μL, lungs 3 weeks after elastase, mean±standard deviation, control 178.8±22.4, normal 51.4±1.9, P<0.01 vs control. The text has this: Combination effect of cilostazol/probucol for pulmonary disorder in C57BL/6J mouse treated with elastase produced from human neutrophil.
• Animals: female C57BL/6J mice (5 weeks old) which were purchased from Charles River Laboratories Japan, Inc. were used.
Group composition: the following 5 groups. • Non-treated (normal control) group: n=4 • Elastase-treated group (control group): n=6 • Elastase-treated, 0.3% cilostazol-administrated group: n=6 • Elastase-treated, 0.5% probucol-administrated group: n=6 • Elastase-treated, (0.3% cilostazol+0.5% probucol)−administrated group: n=6
Female C57BL/6J mice (5 weeks old) were divided into the given groups by a stratified randomization (using an SAS software, R 8.1) based on each body weight on the starting day of administration. Shortly after the group division, a MF feed was given to the non-treated group and the control group, and a mixed feed in which cilostazol or/and probucol was added in the given ratio was given to the medicament(s)-treated groups, in free feeding. […]
The following groups were statistically analyzed in order to study about the effect of the single-administration and combination-administration of the medicament(s). • 1) Elastase-treated group (control group) • 2) 0.3% Cilostazol-administrated group • 3) 0.5% Probucol-administrated group • 4) (0.3% Cilostazol+0.5% probucol)−administrated group […]

Regarding `O=C1CCc2cc(OCCCCc3nnnn3C3CCCCC3)ccc2N1` [cilostazol, 6-[4-(1-cyclohexyl-1H-tetrazol-5-yl)butoxy]-3,4-dihydrocarbostyril], the “mean linear intercept of pulmonary alveolus” value (0.3% cilostazol in mixed feed) was 116.9±14.3 μm.

For the compound `CC(C)(Sc1cc(C(C)(C)C)c(O)c(C(C)(C)C)c1)Sc1cc(C(C)(C)C)c(O)c(C(C)(C)C)c1` [probucol, 4,4′-isopropylidenedithiobis[2,6-di-tert-butylphenol]], the “mean linear intercept of pulmonary alveolus” value (0.5% probucol in mixed feed) stood at 86.2±4.8 μm.
